Test results reported in patent US20250171428A1, “CRYSTALLINE FORMS OF 6-((5-METHYL-3-(6-METHYLPYRIDIN-3-YL)ISOXAZOL-4- YL)METHOXY)- N -(TETRAHYDRAPYRAN-4-YL)PYRIDAZINE-3-CARBOXAMIDE” (Hoffmann-La Roche Inc., priority 2022, published 2025).

How the values were obtained:
Format in all cases: physicochemical
[1] = Slurry of Form 4 in various solvents and solvent/water mixtures; conditions: 20° C. to 60° C.
[2] = Transformation of Form 4 at elevated temperature; conditions: temperatures >110° C.
[3] = Competing long-term slurry equilibration experiments including Form A and Form B; conditions: competing slurries of Form A and Form B, various solvents, 5° C. to 65° C.; all conditions tested
Protocol: The competing long-term slurry equilibration experiments including Form A and Form B were performed in various solvents in the temperature range from 5° C. to 65° C.

solid form transformation in slurry [1] | solid form transformation on heating [2] | stability of the crystalline form [3] | Compound
transform to Form B | transform to Form A | – | Cc1ccc(-c2noc(C)c2COc2ccc(C(=O)NC3CCOCC3)nn2)cn1 [Form 4, 6-((5-methyl-3-(6-methylpyridin-3-yl)isoxazol-4-yl)methoxy)-N-(tetrahydropyran-4-yl)pyridazine-3-carboxamide]
– | – | superior stability | Cc1ccc(-c2noc(C)c2COc2ccc(C(=O)NC3CCOCC3)nn2)cn1 [Form B, 6-((5-methyl-3-(6-methylpyridin-3-yl)isoxazol-4-yl)methoxy)-N-(tetrahydropyran-4-yl)pyridazine-3-carboxamide]
